Test results taken from US20100280118A1, “Methods for treating substance dependence” (The Scripps Research Institute, priority 2007, published 2010).
Marks after values point to notes of the source that are not given here.

Columns and labels:
[1] = system: cue-reactive, alcohol-dependent individuals; test: Cue reactivity study, 1 week gabapentin 1200 mg vs placebo, alcohol and affective cue-induced craving; format: in vivo, human
Method: This Example describes the results of a study to examine the effectiveness of gabapentin 1200 mg for attenuating symptoms of protracted abstinence in a non treatment-seeking sample of cue-reactive, alcohol-dependent individuals. Subjects were 33 paid volunteers with current DSM-IV alcohol dependence and a strength of craving rating 1σ or greater for alcohol than water cues. Subjects were randomly assigned to gabapentin or placebo for 1-week and then participated in a within-subjects trial where each was exposed to standardized sets of pleasant, neutral, and unpleasant visual stimuli followed by alcohol or water cues. A key aspect of the study design is exposure to alcohol cues (sight and smell of the subject's favorite alcoholic beverage) without consumption. Alcohol consumption would be expected to mask the effects of any medication that targets symptoms of protracted abstinence, as either or both could attenuate such symptoms; the effects of alcohol and the drug to be tested would therefore be inextricably confounded. The design is therefore relatively novel in combining elicitation of craving while inducing both positive and negative affect (along with interaction effects) with non-consumptive alcohol cue exposure. As such it may be particularly well-suited for testing the effectiveness of pharmacological treatments intended to normalize the neurobiological imbalances associated with protracted abstinence in alcoholics.
Subject enrollment: The study was conducted at the University of Miami School of Medicine, Miami, Fla. and approved by that institution's Institutional Review Board as conforming to the ethical standards of the 1964 Declaration of Helsinki. Subjects provided written informed consent prior to participation. Subjects were non treatment-seeking paid volunteers recruited primarily through advertisements, meeting the Diagnostic and Statistical Manual of Mental Disorders, 4th Edition (DSM-IV; American Psychiatric Association, 1994) criteria for current alcohol dependence, abstinent from alcohol on the day of the study, as verified by Breath Alcohol Concentration (BAC), not in acute withdrawal as verified by a Clinical Institute Withdrawal Assessments for Alcohol (CIWA-Ar; Sullivan et al., Br J Addict 84:1353-1357, 1989) score of <8, and meeting the definition of “cue reactive”. An individual was considered cue reactive if his or her “strength of craving” score under a neutral affect condition (see Study Overview below) was ≧1 standard deviation (3 VAS rating scale points; see measures discussion) greater for alcohol than for water cues during a mini cue reactivity session. This is similar to the criterion described by Rubonis et al. (J. Stud. Alcohol. 55:487-494, 1994) to classify cue reactors. Exclusionary criteria consisted of clinically significant medical or psychiatric disorders including depression, anxiety, or dependence on substances other than alcohol and nicotine.
Study Overview and Experimental Design: Subjects meeting admission criteria were randomized to receive gabapentin 1200 mg or placebo. Because image-based affective cue reactivity was not as strong as we had anticipated, to improve statistical power we augmented the control group with untreated individuals from three otherwise-similar lab studies. Criteria for participation were the same in all cases. Dosages (matched in the placebo condition) were titrated as follows: 300 mg morning on day 1, 300 mg morning and also evening on day 2, 300 mg morning, midday and evening on day 3, and 300 mg morning and midday followed by 600 mg evening for days 4-7. On day 7 of double-blind medication, overall measures of mood, sleep, and craving were assessed. This one-week interval of chronic dosing is intended to model and predict the critical first week on medication in a Phase II or III clinical trial, when participants' experiences with sleep and mood, or side effects, can dramatically affect treatment adherence and risk for dropout. […]

[2] = system: non treatment-seeking volunteers with current cannabis and alcohol dependence; test: Pilot laboratory study, one week gabapentin 1200 mg/d vs placebo; format: in vivo, human
Method: This Example describes treatment of subjects suffering from cannabis dependence with gabapentin. Subjects with DSM-IV cannabis dependence were enrolled in a clinical study of treatment with gabapentin. Earlier, in a pilot laboratory study, the safety and efficacy of gabapentin 1200 mg/d in non treatment-seeking volunteers with current cannabis and alcohol dependence involving were examined in one week of chronic dosing with double-blind, randomly assigned active drug or placebo. […] The results lend support to: 1) the safety and tolerability of our drug titration schedule and the steady state dose of gabapentin 1200 mg/d in outpatients with cannabis dependence; 2) the efficacy of gabapentin 1200 mg/d in treating disturbed sleep, a key symptom of cannabis withdrawal; and 3) our ability to recruit a sample of subjects with cannabis dependence who are willing to participate in clinical research involving medication. Based on the results from this pilot study, subjects with only cannabis dependence were then recruited and treated with gabapentin, as detailed below.

[3] = system: outpatients with alcohol dependence; test: 12-week double-blind, placebo-controlled, dose-ranging study of gabapentin 900 or 1800 mg/day in alcohol dependence; format: in vivo, human; details: for Cohen's d, drinks per drinking day: interim analysis
Method: This example describes the study of gabapentin treatment of subjects suffering from alcohol dependence. A 12-week, double-blind, placebo-controlled, dose-ranging study was conducted with random assignment to gabapentin 900 mg/day, 1800 mg/day, or placebo. Subjects are outpatients with alcohol dependence. The 3 pharmacological treatment conditions were administered in conjunction with manual-guided behavioral counseling that incorporates strategies to increase motivation, abstinence, and medication compliance. Counseling and research assessments occurred weekly throughout the 12-week treatment phase. Post-treatment assessments occurred at Weeks 13, 24, and 36.
The criteria for inclusion are as follows: (1) Males or females over 18 years of age; (2) Meets DSM-IV criteria for current alcohol dependence; (3) Seeking research-based outpatient treatment for alcohol problems; (4) Abstinent from alcohol a minimum of 3 days to a maximum of 30 days at the time of randomization; and (5) Willing to attend 12 weekly study visits and 3 follow-up visits. The criteria for exclusion are as follows: (1) Currently meets DSM-IV criteria for dependence on substances other than alcohol, nicotine or caffeine; (2) Significant medical disorders that will increase potential risk or interfere with study participation, e.g., plasma […] >1.4 mg/dL; (3) Sexually active female subjects with childbearing potential who are pregnant, nursing or refuse to use a reliable method of birth control; (4) Meets DSM-IV criteria for a major AXIS I disorder other than alcohol dependence, including depressive and anxiety disorders, and is in need of, or currently undergoing, pharmacotherapy; (5) Inability to understand and/or comply with the provisions of the protocol and consent form; (6) Treatment with an investigational drug during the previous month; (7) Sensitivity to study drug as evidenced by adverse drug experiences with gabapentin or its ingredients; (8) Ongoing treatment with disulfuram (Antabuse), naltrexone (ReVia®), acamprosate (Campral®) or other medications that may affect study outcomes, e.g., anticonvulsants; (9) More than one month of abstinence prior to randomization; (10) Subjects who require medicated detoxification (Note: Subjects may proceed with study evaluation after completion of detoxification); (11) Subjects for whom treatment of alcoholism is being mandated by a legal authority; (12) Unable to identify at least one collateral informant to verify drinking status at baseline and monthly during study, and to assist in tracking subjects for follow-up assessments; or (13) Subjects who plan to move out of the geographic area served by the Clinic prior to study completion.
Primary outcome of the treatment was assesses with the following measures. Timeline Followback Interview (TLFB; Sobell and Sobell, 1992) provides quantity and frequency estimates of alcohol intake at baseline and throughout the study using a standard drinks format (Research Nurse, 20 minutes at screening and Week 24 and 36 follow-up visits, 5 minutes at weekly study visits). […] Therefore, TLFB data is supported by weekly breathalyzers and monthly collateral informant reports and GGT. If unresolved inconsistencies between sources occur, then the most negative outcome will be assumed accurate.
Secondary outcome of the treatment was assessed with the following measures. Alcohol Craving Questionnaire-Short Form (ACQ-SF; Singleton et al., 1994) provides a quick assessment of current drinking urges, difficulty resisting urges and anticipation of positive outcome or relief from negative affective state by drinking (baseline and every study visit, self report, 1-2 minutes). Beck Depression Inventory (BDI; Beck et al., 1961) is a self-rating of severity of depressive symptoms (baseline and every study visit, 5 minutes). Gamma glutamyl transferase (GGT) is used as a biochemical marker of alcohol abstinence or relapse. […]

[4] = system: outpatients with current cannabis dependence; test: 12-week randomized, double-blind, placebo-controlled trial of gabapentin 1200 mg/d in cannabis dependence
[5] = gabapentin 1200 mg vs placebo, day 7, alcohol vs water cue, 0-20 rating
[6] = gabapentin 1200 mg vs placebo, day 7, alcohol vs water cue, VAS 0-20
[7] = gabapentin 1200 mg vs placebo, day 7, negative vs neutral affect cue, 0-20 rating
[8] = gabapentin 1200 mg vs placebo, day 7, negative vs neutral affect cue, VAS 0-20
[9] = gabapentin 1200 mg vs placebo, day 7, positive vs neutral affect cue, 0-20 rating
[10] = gabapentin 1200 mg vs placebo, day 7, positive vs neutral affect cue, VAS 0-20
[11] = % of subjects, gabapentin 1200 mg/d

In the case of NCC1(CC(=O)O)CCCCC1 [gabapentin, (1-aminomethyl)-1-cyclohexaneacetic acid], the “symptoms generating the drug-placebo difference in symptom counts” value ([1]; 1 week, gabapentin 1200 mg vs placebo) is reported as “dizziness (χ^2(1)=6.1, p<0.02) and fatigue”, the “total symptom counts over the week on medication (mean)” value ([1]; SAFTEE-G, 1 week, gabapentin 1200 mg, standard deviation 2.7, n=30 assessed) is reported as 3.3 and the “Bev x Gaba, Feel strong emotion (estimated model coefficient)” value [1, 5] is reported as 1.15. The “Bev x Gaba, Like beverage (estimated model coefficient)” value [1, 5] was −0.25, the “Bev x Gaba, SAM Arousal (estimated model coefficient)” value [1, 5] was −1.79 and the “Bev x Gaba, SAM Dominance (estimated model coefficient)” value [1, 5] was 0.81. For the same compound, the “Bev x Gaba, SAM Valence (estimated model coefficient)” value [1, 5] was 3.28*, the “Bev x Gaba, Craving Difficult to turn down (estimated model coefficient)” value [1, 6] was −1.31^†† and the “Bev x Gaba, Craving Drink Now (estimated model coefficient)” value [1, 6] was −1.96^†. For the same compound, the “Bev x Gaba, Craving Make Things Perfect (estimated model coefficient)” value [1, 6] was 0.23, the “Bev x Gaba, Craving Strength (estimated model coefficient)” value [1, 6] was −2.16^† and the “Aff− x Gaba, Feel strong emotion (estimated model coefficient)” value [1, 7] was −1.29. For the same compound, the “Aff− x Gaba, Like beverage (estimated model coefficient)” value [1, 7] was 0.98, the “Aff− x Gaba, SAM Arousal (estimated model coefficient)” value [1, 7] was −4.92* and the “Aff− x Gaba, SAM Dominance (estimated model coefficient)” value [1, 7] was 1.30. The “Aff− x Gaba, SAM Valence (estimated model coefficient)” value [1, 7] was 1.25, the “Aff− x Gaba, Craving Difficult to turn down (estimated model coefficient)” value [1, 8] was 1.26 and the “Aff− x Gaba, Craving Drink Now (estimated model coefficient)” value [1, 8] was 0.58. The “Aff− x Gaba, Craving Make Things Perfect (estimated model coefficient)” value [1, 8] was 0.20, the “Aff− x Gaba, Craving Strength (estimated model coefficient)” value [1, 8] was 0.96 and the “Aff+ x Gaba, Feel strong emotion (estimated model coefficient)” value [1, 9] was −1.08. For the same compound, the “Aff+ x Gaba, Like beverage (estimated model coefficient)” value [1, 9] was −0.04, the “Aff+ x Gaba, SAM Arousal (estimated model coefficient)” value [1, 9] was −3.22^† and the “Aff+ x Gaba, SAM Dominance (estimated model coefficient)” value [1, 9] was 0.80. For the same compound, the “Aff+ x Gaba, SAM Valence (estimated model coefficient)” value [1, 9] was 0.21, the “Aff+ x Gaba, Craving Difficult to turn down (estimated model coefficient)” value [1, 10] was −1.34^†† and the “Aff+ x Gaba, Craving Drink Now (estimated model coefficient)” value [1, 10] was 0.16. For the same compound, the “Aff+ x Gaba, Craving Make Things Perfect (estimated model coefficient)” value [1, 10] was 0.44, the “Aff+ x Gaba, Craving Strength (estimated model coefficient)” value [1, 10] was 0.25 and the “ARCI scores on five drug-of-abuse groups (abuse potential)” value ([1]; gabapentin vs. placebo, n=28) was “no statistically significant differences”. For the same compound, the “CBC, LFT, or urinalysis values” [2] was “no change from baseline”, the adverse drug complaints [2] was “no adverse drug complaints of more than mild severity” and the BDI total score ([3]; 900 mg/d vs placebo) was “no significant effect”. For the same compound, the “sleep disturbance (PSQI), effect size d” value ([3]; 900 mg/d vs placebo, p<0.01) was −0.50, the “daytime dysfunction (PSQI), effect size d” value ([3]; 900 mg/d vs placebo, p<0.05) was −0.27 and the “Cohen's d, drinks per drinking day” value ([3]; 900 mg/d vs placebo) was 0.82. The “negative affective symptoms (BDI), effect size d” value ([3]; 1800 mg/d relative to placebo, p<0.05) was 0.33, the “daytime dysfunction (PSQI), effect size d” value ([3]; 1800 mg/d vs placebo, p<0.01) was −0.43 and the “Cohen's d, drinks per drinking day” value ([3]; 1800 mg/d vs placebo) was 0.71. The “time the beneficial effect was sustained after completing treatment” value ([3]; complete study (n=150)) was “up to 12 weeks”, the “deaths or serious drug-related adverse events” value ([3]; throughout the study) was “no deaths or serious drug-related adverse events” and the “subjective sleep quality or PSQI summary score” value ([3]; treatment vs placebo, trend for 900 mg/d, p<0.08) was “no significant effect”. The “deaths or terminations due to drug-related adverse events” value ([4]; 12 weeks) was “no deaths or terminations due to drug-related adverse events”, the “Adverse event: Abdominal Pain” value [4, 11] was 25% and the “Adverse event: Decreased Appetite” value [4, 11] was 10%. The “Adverse event: Depression” value [4, 11] was 30%, the “Adverse event: Dizziness” value [4, 11] was 0% and the “Adverse event: Fatigue” value [4, 11] was 15%. The “Adverse event: Headache” value [4, 11] was 20%, the “Adverse event: Increased Appetite” value [4, 11] was 15% and the “Adverse event: Nausea” value [4, 11] was 15%. For the same compound, the “Adverse event: Nervousness” value [4, 11] was 25%, the “Adverse event: Other” value [4, 11] was 5% and the “average severity of AE's” value ([4]; both treatment groups, 2=mild) was 2.0±0.7. For the same compound, the “number of AE's complained of per subject” value ([4]; gabapentin 1200 mg/d, 12 weeks, p=0.11 vs placebo) was 4.0±6.7.
